Assays:
[1] = Tolerability: treatment-emergent adverse events and MTD, SNX-5422 dose escalation plus everolimus in NET patients; format: in vivo; settings: in combination with everolimus, once every other day for 21 days of 28-day cycle
Procedure: (§1) Starting on Day 1, SNX-5422 was dosed once every other day for 21 days (11 doses), followed by a 7-day drug free period. SNX-5422 was dosed each morning starting at 50 mg/m^2 with standard 3+3 dose escalation. The actual dose administered was based on body surface area, calculated using body weight measured at the start of each cycle and height at Screening. The calculated dose was then rounded to the nearest mg on dosing chart. Everolimus was dosed at 10 mg once daily in the evening (at least 8 hours after SNX-5422 dosing) for 28 days, with dose de-escalation allowed based on EVR toxicity. Eligible patients were to have unresectable gastro-entero-pancreatic or pulmonary NETs and less than 5 prior lines of anti-cancer treatment.
Results: Seventeen patients (10 male, 7 female; median age 59 years) with NETs were enrolled in the study. The maximum tolerated dose (MTD) of SNX-5422 was determined to be 75 mg/m^2 in combination with everolimus.
Tolerability: Most frequent (i.e., occurring in 6 or more patients overall) Treatment-Emergent Adverse Events (TEAEs) are provided in Table 1. All patients reported at least one TEAE. Diarrhea was the most commonly reported TEAE, occurring in 80% of patients overall. In 13 patients (65%), the event was considered related to the combination of SNX-5422 and everolimus. […]

[2] = tested on: unresectable gastro-entero-pancreatic or pulmonary NETs; assay: Tumor response by RECIST 1.1 in NET patients treated with SNX-5422 plus everolimus; format: in vivo, human
Procedure: as §1
Tumor response was assessed at the end of every 2 cycles±2 weeks, using RECIST 1.1 criteria (Eisenhauer et al. European Journal of Cancer 45:228-247 (2009)). Partial Response (PR) was defined as at least a 30% decrease in the sum of diameters of target lesions, taking as reference the baseline sum diameters. Progressive Disease (PD) was defined as at least a 20% increase in the sum of diameters of target lesions, taking as reference the smallest sum on study. Stable disease is noted where there is no sufficient shrinkage to qualify for PR or no sufficient increase to qualify for PD.

[3] = tested on: advanced, non-functional neuroendocrine tumours of the lung or gastrointestinal tract; settings: everolimus only, without SNX-5422; patients with NETs; RADIANT-4; cited from earlier work
[4] = of 17 NET patients evaluable, SNX-5422 plus everolimus, RECIST 1.1
[5] = patients previously treated with 2 or less prior lines of treatment (FIG. 2), SNX-5422 plus everolimus
[6] = six patients, GI tract/lung/unknown carcinoid, ≤2 prior lines and Ki67<20% (FIG. 4), SNX-5422 plus everolimus

SMILES	maximum tolerated dose (MTD) [1] [mg/m^2]	subjects receiving ongoing treatment for over 2 years (i.e., ≥30 cycles) ([2]; combination of SNX-5422 plus everolimus, NET patients) [subjects]	partial response as best response, % of patients [2, 4] [%]	partial response as best response, number of patients [2, 4] [patients]	progressive disease as best response, % of patients [2, 4] [%]	progressive disease as best response, number of patients [2, 4] [patients]	stable disease as best response, % of patients [2, 4] [%]	stable disease as best response, number of patients [2, 4] [patients]	tumor reduction ([2]; one patient with GI NET, 30 treatment cycles, SNX-5422 plus everolimus) [%]	tumor reduction ([2]; one patient with lung carcinoid, 10 treatment cycles, SNX-5422 plus everolimus) [%]	tumor reduction ([2]; one patient with unknown carcinoid, 35 treatment cycles, SNX-5422 plus everolimus) [%]	reduction in target lesion size ([2]; one patient, SNX-5422 plus everolimus) [%]	tumor measurement, second diameter (CT scan left iliac adenopathy) ([2]; patient with pulmonary carcinoid NET, after 4 cycles of treatment, baseline 4.25 cm, SNX-5422 plus everolimus) [cm]	tumor measurement, first diameter (CT scan left iliac adenopathy) ([2]; patient with pulmonary carcinoid NET, after 4 cycles of treatment, baseline 6.51 cm, SNX-5422 plus everolimus) [cm]	partial response as best response, number of patients [2, 5] [patients]	progressive disease as best response, number of patients [2, 5] [patients]	stable disease as best response, number of patients [2, 5] [patients]	overall response rate [2, 6] [%]	partial response, number of patients [2, 6]	partial response rate, % of patients [3]
CC1(C)CC(=O)c2c(C(F)(F)F)nn(-c3ccc(C(N)=O)c(N[C@H]4CC[C@H](OC(=O)CN)CC4)c3)c2C1 [SNX-5422, trans-4-({2-(aminocarbonyl)-5-[6,6-dimethyl-4-oxo-3-(trifluoromethyl)-4,5,6,7-tetrahydro-1H-indazol-1-yl]phenyl}amino)cyclohexyl glycinate]	75	2	18	3	18	3	64	11	31	51	36	51	2.42	3.75	3	1	7	50	three	–
CO[C@H]1C[C@@H]2CC[C@@H](C)[C@@](O)(O2)C(=O)C(=O)N2CCCC[C@H]2C(=O)O[C@H]([C@H](C)C[C@@H]2CC[C@@H](OCCO)[C@H](OC)C2)CC(=O)[C@H](C)/C=C(\C)[C@@H](O)[C@@H](OC)C(=O)[C@H](C)C[C@H](C)/C=C/C=C/C=C/1C [everolimus, (1R,9S,12S,15R,16E,18R,19R,21R,23S,24E,26E,28E,30S,32S,35R)-1,18-dihydroxy-12-{(1R)-2-[(1 S,3R,4R)-4-(2-hydroxyethoxy)-3-methoxycyclohexyl]-1-methylethyl}-19,30-dimethoxy-15,17,21,23,29,35-hexamethyl-11,36-dioxa-4-aza-tricyclo[30.3.1.04,9]hexatriaconta-16,24,26,28-tetraene-2,3,10,14,20-pentaone]	–	–	–	–	–	–	–	–	–	–	–	–	–	–	–	–	–	–	–	about 2%

Source: US20190269656A1, “Combination Therapies Using Indazolylbenzamide Derivatives for the Treatment of Cancer” (ESANEX, INC., priority 2016, published 2019)
